Measurements as given in patent US20220378744A1, “COMPOUNDS FOR TREATING PROLIFERATOR-ACTIVATED RECEPTORS (PPAR) MEDIATED DISEASES OR CONDITIONS” (MEDIPURE PHARMACEUTICALS INC., priority 2021, published 2022).
One block for each compound: values may come before it.

Experiments:
[1] = test system: IMQ-induced psoriasis in BALB/c mice; test: IMQ-induced psoriasis model in BALB/c mice, topical creams, PASI score; assay type: in vivo; conditions: for tolerability in mice / visual damage on the skin: topical, seven-day consecutive treatment; for tolerability in mice: even at 10% creams; for visual damage on the skin: up to 10% creams
Protocol: The animal experiment is conducted in accordance with the Guidelines for the Institutional Animal Care and Use Committee. Both male and female BALB/c mice from Rodenta Bioserve, India, at 7-8 weeks of age and 20-25 gram of body weight are housed in a laboratory environment with constant temperature (24.0±1.0° C.) and relative humidity (45.0-55.0%) on a 12 h light/dark cycles. These animals are provided free access to unlimited amounts of food and water during the entire experiment. The animals are divided into 12 groups of 8 mice each and shaved on the back on day 0 for an area of 2×2 cm . Human-like psoriasis in mice is induced by topical application of 5% Imiquimod (IMQ) procured from AK Scientific, USA, and formulated in the base cream at desired percentages in-house, in shaved area and right ear (0.5×0.5 cm). […] Vehicle, clobetasol propionate (CP, Sigma. 0.05% w/w; positive control), test creams, and CBD (Ilesol Pharmaceuticals), respectively, is applied topically on both the shaved back (80 mg cream) and the right ear (20 mg cream) of mice, once daily from day 10 to day 16. The study ends at day 17. At stated time points the severity of psoriasis is evaluated using the PASI score (Psoriasis Area Severity Index: sum of erythema, scaling and thickening, scored independently from 0 to 4 for each mouse; max PASI score=12). Tissue and blood samples are collected for histopathology, biochemistry and immunoassay from each animal at various points.

[2] = test system: TNFα/IL-17A-stimulated HaCaT cells; test: Anti-inflammatory effect of combined test compounds (Abn-CBD/CBD and PPAR agonists) in TNFα/IL-17A-stimulated HaCaT cells; assay type: cell-based, human
Protocol: HaCaT cells were maintained as described above in DMEM high glucose (4.5 g/L) medium supplemented with 10% FBS and 1% (v/v) penicillin/streptomycin solution (Invitrogen, Thermo Fisher) and kept in an incubator at 37° C. with 5% CO2. For experiments the cells were seeded at 5×10^4 cells/well in 0.5 mL of medium to a 24-well culture plate (Nunc, Thermo Fisher) and incubated overnight. The old medium in the culture plates was discarded and the corresponding stimulant, TNFα/IL-17A (R&D Systems) at 2 ng/mL each, with or without test chemicals in 0.5 mL of fresh medium was added to each cell well in the plate. There were duplicate wells for each treatment. The plate was incubated for another 24 h and the supernatant was collected for cytokine analysis, namely IL-6 and IL-8, using ELISA kits (Thermo Fisher).

[3] = test system: IMQ-stimulated HaCaT cells; test: Anti-inflammatory effect, IMQ-stimulated HaCaT cell model (IL-6, IL-8 ELISA); assay type: cell-based, human; conditions: IMQ 50 μM, 24 h, vs control
Protocol: (§1) Three in vitro models based on HaCaT cell culture were tested. HaCaT cells were maintained as described above in DMEM high glucose (4.5g/L) medium supplemented with 10% FBS and 1% (v/v) penicillin/streptomycin solution (Invitrogen, Thermo Fisher) and kept in an incubator at 37° C. with 5% CO2. For experiments, the cells were seeded at 5×10^4 cells/well in 1 mL of medium to a 24-well culture plate (Nunc, Thermo Fisher) and incubated overnight.
(§2) (1) For the imiquimod (IMQ)-stimulated HaCaT model, IMQ (Alfa Aesar) at 50 μM final concentration was used in the experiments; (2) for TNFα/IL-17A-stimulated-HaCaT model, 2 ng/mL of each cytokine (R&D Systems) was used; and (3) for the lipopolysaccharide (LPS, Sigma) simulated HaCaT cell model, 20 μg/mL LPS was used. For drug chemical treatment the old medium in the culture plates described above was discarded and the corresponding stimulant (IMQ, TNFα/IL-17A, or LPS) with or without test chemicals in 0.5 mL fresh medium was added to each cell well. There were duplicate wells for each treatment. The plate was incubated for another 24 h and the supernatant was collected for cytokine analysis, namely IL-6 and IL-8, using the corresponding ELISA kits (Thermo Fisher).

human PPARγ (NR1C3) = target: T1, human PPARγ (NR1C3) (Homo sapiens, UniProt P37231); test: Cell-based human PPARγ transactivation (nuclear receptor reporter) assay; conditions: FIG. 3
T1 sequence (P37231 1-505): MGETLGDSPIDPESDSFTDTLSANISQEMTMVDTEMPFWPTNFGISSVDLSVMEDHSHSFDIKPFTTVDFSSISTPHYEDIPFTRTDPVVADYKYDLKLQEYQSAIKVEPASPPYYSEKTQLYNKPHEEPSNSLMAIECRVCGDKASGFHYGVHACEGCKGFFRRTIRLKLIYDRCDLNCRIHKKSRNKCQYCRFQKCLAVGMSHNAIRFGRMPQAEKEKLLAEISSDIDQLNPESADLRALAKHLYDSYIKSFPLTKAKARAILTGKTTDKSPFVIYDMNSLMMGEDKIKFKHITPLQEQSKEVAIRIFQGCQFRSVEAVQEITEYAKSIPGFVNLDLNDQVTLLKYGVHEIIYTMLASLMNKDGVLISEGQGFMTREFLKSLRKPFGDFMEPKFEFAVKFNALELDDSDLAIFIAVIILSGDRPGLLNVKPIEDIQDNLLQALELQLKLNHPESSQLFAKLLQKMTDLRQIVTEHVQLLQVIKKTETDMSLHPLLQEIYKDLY
Protocol: (§3) The assay was performed using cell-based human PPAR nuclear receptor reporter assay kits (NR1C1 for PPARα; NR1C2 for PPARδ/β, and NR1C3 for PPARγ, Indigo Biosciences) by following the manufacturer's instruction. In brief, PPAR reporter cells were added to CRM medium (Indigo Biosciences), seeded into wells of a 96-well culture plate and incubated for 5 hours in a cell culture incubator at 37° C. with 5% CO2. The medium was then removed, and the cells were treated with test compounds at different concentrations in CSM medium (Indigo Biosciences) for 24 h inside the incubator. […] DMSO (Sigma) at 0.1% (v/v) was used as negative baseline control (C). Each treatment was tested in duplicate wells. At the end point of the experiments, the treatment medium was discarded and Luciferase Detection Reagent (Indigo Biosciences) was added. Following a 10-minute rest period, the intensity of light emission (in units of “Relative Light Units; RLU”) from each assay well was quantified using a plate-reading luminometer (Synergy H1 plate reader, BioTek). In addition, live cell multiplex assay (Indigo Biosciences) was combined with the activation assays to detect potential cytotoxic effect, if any, of the test chemicals to normalize the signals as per manufacturer's instruction.

human PPARα (NR1C1) = target: T2, human PPARα (NR1C1) (Homo sapiens, UniProt Q07869); test: Cell-based human PPARα transactivation (nuclear receptor reporter) assay; conditions: luciferase reporter cells, 24 h treatment, FIG. 1
T2 sequence (Q07869 1-468): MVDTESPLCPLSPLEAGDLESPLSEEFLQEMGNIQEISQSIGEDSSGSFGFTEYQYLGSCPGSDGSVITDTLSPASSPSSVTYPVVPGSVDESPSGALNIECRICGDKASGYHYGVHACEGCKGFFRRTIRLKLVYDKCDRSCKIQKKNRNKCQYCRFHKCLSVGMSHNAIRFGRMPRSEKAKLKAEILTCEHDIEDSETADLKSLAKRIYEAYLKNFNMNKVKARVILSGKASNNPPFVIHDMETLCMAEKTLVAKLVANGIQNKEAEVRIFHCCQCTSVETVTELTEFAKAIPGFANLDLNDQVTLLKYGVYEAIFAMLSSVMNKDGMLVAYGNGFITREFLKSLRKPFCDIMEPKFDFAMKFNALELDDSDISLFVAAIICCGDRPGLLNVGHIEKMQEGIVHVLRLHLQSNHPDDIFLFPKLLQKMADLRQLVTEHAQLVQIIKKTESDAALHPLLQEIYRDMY
Protocol: as §3

[4] = test system: LPS-stimulated HaCaT cells; test: Anti-inflammatory effect, LPS-stimulated HaCaT cell model (IL-6, IL-8 ELISA); assay type: cell-based, human; conditions: LPS 20 μg/mL, 24 h
Protocol: as §1
as §2, with “Fisher). The experiments were repeated independently to confirm the observation.” for “Fisher).”

human PPARδ/β (NR1C2) = target: T3, human PPARδ/β (NR1C2) (Homo sapiens, UniProt Q03181); test: Cell-based human PPARδ/β transactivation (nuclear receptor reporter) assay; conditions: at tested concentrations
T3 sequence (Q03181 1-441): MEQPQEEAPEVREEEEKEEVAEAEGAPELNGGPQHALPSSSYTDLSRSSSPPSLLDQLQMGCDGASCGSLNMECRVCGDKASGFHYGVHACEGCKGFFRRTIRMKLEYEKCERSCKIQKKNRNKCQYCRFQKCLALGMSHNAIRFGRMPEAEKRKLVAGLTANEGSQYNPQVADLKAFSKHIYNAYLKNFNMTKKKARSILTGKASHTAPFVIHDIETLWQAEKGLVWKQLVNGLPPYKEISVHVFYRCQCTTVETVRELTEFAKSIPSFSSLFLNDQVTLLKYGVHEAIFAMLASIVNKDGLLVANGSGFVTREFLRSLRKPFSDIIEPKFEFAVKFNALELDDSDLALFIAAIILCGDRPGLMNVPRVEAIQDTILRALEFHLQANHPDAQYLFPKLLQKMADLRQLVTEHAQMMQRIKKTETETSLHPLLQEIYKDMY
Protocol: as §3

[5] = initial studies, range 1 to 30 μM, HaCaT model
[6] = creams at 1% and 5%, once daily day 10 to day 16, FIG. 11

Structure (SMILES): C=C(C)[C@@H]1CCC(C)=C[C@H]1c1c(O)cc(CCCCC)cc1O [CBD, cannabidiol, reference compound]
- tolerability in mice [1]: well tolerated
- visual damage on the skin [1]: No visual damage
- HaCaT growth ([2]; at higher concentrations, e.g. 30 μM): inhibit HaCaT growth
- production of IL-6 [2, 5]: reduced
- production of IL-8 [2, 5]: reduced

Structure (SMILES): CCCc1cc(C(=O)c2ccc(F)cc2)ccc1OCCCOc1ccc2c(cnn2CC(=O)OC)c1 [MP-152, methyl 2-(5-(3-(4-(4-fluorobenzoyl)-2-propylphenoxy)nropoxy)-1H-indazol-1-yl)acetate]
- production of IL-6 ([3]; compound at 2.5 μM): significantly inhibited
- production of IL-6 ([3]; compound at 25 μM): significantly inhibited
- PPARγ transactivation: concentration at which (or starting at which) active (human PPARγ (NR1C3)): 1,000 nM
- PPARα transactivation: concentration at which (or starting at which) active (human PPARα (NR1C1)): 1 µM
- reducing the PASI score compared with CP [1, 6]: more effective than CP
- reducing the PASI score, rank among the treatment groups [1, 6]: most active
- tolerability in mice [1]: well tolerated
- visual damage on the skin [1]: No visual damage
- reduction of IL-8 production compared with rosiglitazone and fenofibrate ([4]; 25 μM): more active
- production of IL-6 ([4]; compound at 25 uM): reduced

- PPARδ/β transactivation activity (human PPARδ/β (NR1C2)): showed activities
Structure (SMILES): CSc1ccc(C(=O)/C=C/c2cc(C)c(OC(C)(C)C(=O)O)c(C)c2)cc1 [elafibranor]

- PPARδ/β transactivation activity (human PPARδ/β (NR1C2)): showed activities
Structure (SMILES): CCO[C@@H](Cc1ccc(OCCn2c(C)ccc2-c2ccc(SC)cc2)cc1)C(=O)O [saroglitazar]
